This note sets out measurements from patent US8716493B2, “Multicyclic compounds and the use thereof” (Cephalon, Inc., priority 2000, dated 2014).

Sequence of recombinant human PARP (P09874 whole entry): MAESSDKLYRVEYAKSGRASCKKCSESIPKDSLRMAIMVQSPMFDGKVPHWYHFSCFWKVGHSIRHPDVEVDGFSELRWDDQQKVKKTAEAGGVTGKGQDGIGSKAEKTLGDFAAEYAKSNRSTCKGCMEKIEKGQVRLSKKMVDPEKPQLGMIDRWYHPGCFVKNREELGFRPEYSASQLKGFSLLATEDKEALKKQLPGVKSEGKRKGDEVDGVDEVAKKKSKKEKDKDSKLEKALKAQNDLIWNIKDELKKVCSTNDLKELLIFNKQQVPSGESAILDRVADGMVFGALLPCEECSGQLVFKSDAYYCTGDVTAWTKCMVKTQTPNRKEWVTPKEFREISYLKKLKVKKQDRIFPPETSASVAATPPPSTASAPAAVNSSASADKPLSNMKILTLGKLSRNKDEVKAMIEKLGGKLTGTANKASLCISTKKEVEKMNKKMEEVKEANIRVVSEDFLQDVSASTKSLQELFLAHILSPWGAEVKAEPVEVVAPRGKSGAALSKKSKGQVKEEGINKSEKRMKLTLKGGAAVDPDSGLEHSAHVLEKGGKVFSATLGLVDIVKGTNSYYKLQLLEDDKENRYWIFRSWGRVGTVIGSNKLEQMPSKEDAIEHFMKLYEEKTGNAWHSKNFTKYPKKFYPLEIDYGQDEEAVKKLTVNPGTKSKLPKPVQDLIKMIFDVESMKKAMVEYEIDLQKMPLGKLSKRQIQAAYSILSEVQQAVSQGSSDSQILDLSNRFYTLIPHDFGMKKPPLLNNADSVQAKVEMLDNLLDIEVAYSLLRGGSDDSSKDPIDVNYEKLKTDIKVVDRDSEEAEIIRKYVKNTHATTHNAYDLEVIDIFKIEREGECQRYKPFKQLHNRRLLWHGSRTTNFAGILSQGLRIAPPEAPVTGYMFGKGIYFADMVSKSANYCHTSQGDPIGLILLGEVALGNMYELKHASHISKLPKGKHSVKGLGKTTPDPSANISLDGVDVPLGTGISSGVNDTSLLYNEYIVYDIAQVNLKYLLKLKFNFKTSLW

The first experiment has as its target recombinant human PARP (Homo sapiens, UniProt P09874). As to the kind of experiment: Measurement of PARP enzymatic activity (transfer of radiolabeled ADP-ribose from NAD+ to protein acceptor). In kind it is biochemical.
Conditions: not given
The method, then:
PARP activity was monitored by transfer of radiolabeled ADP-ribose units from [^32]NAD^+ to a protein acceptor such as histone or PARP itself. […] The reactions were initiated by the addition of 100 μM NAD^+ supplemented with 2 uCi [^32]NAD^+/mL and maintained at room temperature for 12 minutes. […] The amount of acid-insoluble radioactivity, corresponding to polyADP-ribosylated protein, was quantitated in a Wallac MicroBeta scintillation counter.
Single-point inhibition data were calculated by comparing PARP, VEGFR2, or MLK3 activity in the presence of inhibitor to activity in the presence of DMSO only. Inhibition curves for compounds were generated by plotting percent inhibition versus log10 of the concentration of compound. IC50 values were calculated by nonlinear regression using the sigmoidal dose-response (variable slope) equation in GraphPad Prism as follows: y=bottom+(top−bottom)/(1+10^(log IC50^−x)*Hillslope) where y is the % activity at a given concentration of compound, x is the logarithm of the concentration of compound, bottom is the % inhibition at the lowest compound concentration tested, and top is the % inhibition at the highest compound concentration examined. The values for bottom and top were fixed at 0 and 100, respectively. IC50 values were reported as the average of at least three separate determinations.
For some compounds, inhibiting data is presented as percent inhibition at a specified concentration. Compounds are tabulated together with compound number, substituents, and enzyme inhibition data.
In the case of `O=C1NC(=O)c2c1c1c(c3[nH]c4ccc(C(=O)N5CCC6(CC5)OCCO6)cc4c23)CCC1` [Compound 2db], the IC50 was 11 nM.

The same experiment, now with this note: PARP IC50 (nM), Table 8.
Regarding `COCCNC(=O)Oc1ccc2[nH]c3c4c(c5c(c3c2c1)C(=O)NC5=O)CCC4` [Compound 15c], the IC50 turned out to be 40 nM.

For `O=C1NC(=O)c2c1c1c(c3[nH]c4ccc(OC(=O)N5CCN(CCO)CC5)cc4c23)CCC1` [Compound 15l], the IC50 was determined as 15 nM.

The same experiment, now with this note: Table 1; read-out: PARP IC50.
In the case of `O=C1c2c3c(c4[nH]c5ccccc5c4c2C(=O)N1S(=O)(=O)c1ccccc1)CCC3` [Compound 1j], the IC50 was determined as 250 nM.

As for `O=C1NC(=O)c2c1c1c(c3[nH]c4ccccc4c23)CCC1` [Compound 1a, 5,7,8,9,10,11-hexahydrocyclopent[a]pyrrolo[3,4-c]carbazole-5(6H), 7-dione], the IC50 amounted to 36 nM.

Still in this experiment, the particulars now being: Table 2; read-out: PARP IC50.
For the compound `NCCCC(=O)NCc1ccc2[nH]c3c4c(c5c(c3c2c1)C(=O)NC5=O)CCC4` [Compound 2y, 3-(N-(4-(Amino)butanoyl)aminomethyl)-5,7,8,9,10,11-hexahydrocyclopent[a]pyrrolo[3,4-c]carbazole-5(6H), 7-dione], the IC50 was 54 nM.

Take `O=C(O)c1nccnc1C(=O)c1ccc2[nH]c3c4c(c5c(c3c2c1)C(=O)NC5=O)CCC4` [Compound 4k]: the IC50 amounted to 1 nM.

Take `O=C1NC(=O)c2c1c1c(c3[nH]c4ccc(COCCc5ccccn5)cc4c23)CCC1` [Compound 2df]: the concentration for half-maximal inhibition (IC50) was found to be 104 nM.

For `COCCNC(=O)c1ccc2[nH]c3c4c(c5c(c3c2c1)C(=O)NC5=O)CCC4` [Compound 2co], the half-inhibitory concentration (IC50) was 18 nM.

On to `CCN(CC)C(=O)CCC(=O)c1ccc2[nH]c3c4c(c5c(c3c2c1)C(=O)NC5=O)CCC4` [Compound 4i], for which the IC50 came to 12 nM.

As for `O=C(CN1CCCCC1)c1ccc2[nH]c3c4c(c5c(c3c2c1)C(=O)NC5=O)CCC4` [Compound 2i], the IC50 worked out at 20 nM.

Regarding `CN(C)CCCOc1ccc2[nH]c3c4c(c5c(c3c2c1)C(=O)NC5=O)CCC4` [Compound 2as], the IC50 was determined as 100 nM.

For `CCN(CC)CCOc1ccc2[nH]c3c4c(c5c(c3c2c1)C(=O)NC5=O)CCC4` [Compound 2ar], the 50% inhibitory concentration (IC50) worked out at 88 nM.

As to `O=C1NC(=O)c2c1c1c(c3[nH]c4ccc(Cl)cc4c23)CCC1` [Compound 2b], the IC50 was 39 nM.

Turning to `O=C1NC(=O)c2c1c1c(c3[nH]c4ccc(CN(Cc5ccccc5)Cc5ccccc5)cc4c23)CCC1` [Compound 2bo], the IC50 was 293 nM.

Take `O=C1NC(=O)c2c1c1c(c3[nH]c4ccc(OCCN5CCOCC5)cc4c23)CCC1` [Compound 2at]: the IC50 is 22 nM.

With `O=C(O)c1ccc2[nH]c3c4c(c5c(c3c2c1)C(=O)NC5=O)CCC4` [Compound 2bd], the IC50 stood at 85 nM.

Consider `CC(C)CC(=O)NCc1nc(-c2ccc3[nH]c4c5c(c6c(c4c3c2)C(=O)NC6=O)CCC5)cs1` [Compound 3r], for which the IC50 was found to be 56 nM.

Turning to `O=C1NC(=O)c2c1c1c(c3[nH]c4ccc(CN5CCCCC5)cc4c23)CCC1` [Compound 2bx], the half-maximal inhibitory concentration (IC50) came to 35 nM.

With `CC(C)(C)OC(=O)Cc1nc(-c2ccc3[nH]c4c5c(c6c(c4c3c2)C(=O)NC6=O)CCC5)cs1` [Compound 3q], the IC50 was 29 nM.

As for `CN(C)CCN(C)C(=O)c1ccc2[nH]c3c4c(c5c(c3c2c1)C(=O)NC5=O)CCC4` [Compound 2cu], the IC50 worked out at 151 nM.

In the case of `CC(=O)NCc1nc(-c2ccc3[nH]c4c5c(c6c(c4c3c2)C(=O)NC6=O)CCC5)cs1` [Compound 3n], the IC50 came to 20 nM.

As to `O=C(CCC(=O)N1CCOCC1)c1ccc2[nH]c3c4c(c5c(c3c2c1)C(=O)NC5=O)CCC4` [Compound 4f], the IC50 is 13 nM.

Turning to `COC(=O)CCC(=O)NCc1ccc2[nH]c3c4c(c5c(c3c2c1)C(=O)NC5=O)CCC4` [Compound 2z, 3-(N-(3-(Methoxycarbonyl)propanoyl)aminomethyl)-5,7,8,9,10,11-hexahydrocyclopent[a]pyrrolo[3,4-c]carbazole-5(6H), 7-dione], the IC50 worked out at 10 nM.

On to `N#Cc1ccc2[nH]c3c4c(c5c(c3c2c1)C(=O)NC5=O)CCC4` [Compound 2o, 3-Cyano-5,7,8,9,10,11-hexahydrocyclopent[a]pyrrolo[3,4-c]carbazole-5(6H), 7-dione], for which the IC50 was 14 nM.

`O=C1NC(O)c2c1c1c(c3[nH]c4ccccc4c23)CCC1` (stereo not shown) [Compound 2ay]: the IC50 is 408 nM.

For the compound `O=C(Cn1cncn1)c1ccc2[nH]c3c4c(c5c(c3c2c1)C(=O)NC5=O)CCC4` [Compound 2n], the IC50 is 15 nM.

With `O=C(CCC(=O)N1CCCCCCC1)c1ccc2[nH]c3c4c(c5c(c3c2c1)C(=O)NC5=O)CCC4` [Compound 4s], the half-inhibitory concentration (IC50) was 26 nM.

Turning to `CCN(CC)Cc1ccc2[nH]c3c4c(c5c(c3c2c1)C(=O)NC5=O)CCC4` [Compound 2bm], the IC50 stood at 17 nM.

In the case of `O=C1NC(=O)c2c1c1c(c3[nH]c4ccc(O)cc4c23)CCC1` [Compound 2ao], the IC50 was found to be 27 nM.

In the case of `CC(O)c1ccc2[nH]c3c4c(c5c(c3c2c1)C(=O)NC5=O)CCC4` (stereo not shown) [Compound 2ax], the IC50 worked out at 102 nM.

On to `O=C1NC(=O)c2c1c1c(c3[nH]c4ccc(CO)cc4c23)CCC1` [Compound 2aw], for which the IC50 came to 22 nM.

In the case of `NC(CCCNc1nc(-c2ccc3[nH]c4c5c(c6c(c4c3c2)C(=O)NC6=O)CCC5)cs1)C(=O)O` (stereo not shown) [Compound 3f], the IC50 turned out to be 22 nM.

For `CN1CCN(CC(=O)c2ccc3[nH]c4c5c(c6c(c4c3c2)C(=O)NC6=O)CCC5)CC1` [Compound 2g], the half-inhibitory concentration (IC50) was found to be 16 nM.

As for `O=C(CCC(=O)N1CCCCC1)c1ccc2[nH]c3c4c(c5c(c3c2c1)C(=O)NC5=O)CCC4` [Compound 4p], the IC50 worked out at 10 nM.

Consider `CN1CCN(C(=O)c2ccc3[nH]c4c5c(c6c(c4c3c2)C(=O)NC6=O)CCC5)CC1` [Compound 2cq], for which the IC50 worked out at 12 nM.

As to `CCCCNCc1ccc2[nH]c3c4c(c5c(c3c2c1)C(=O)NC5=O)CCC4` [Compound 2bp], the IC50 turned out to be 25 nM.

The experiment is the same for the next values; noted with them: Table 3; read-out: PARP IC50.
Consider `NCCCC[C@H](N)C(=O)N1C(=O)c2c3c(c4[nH]c5ccc(Cl)cc5c4c2C1=O)CCC3` [Compound 6f], for which the IC50 turned out to be 62 nM.

As for `O=C1NC(=O)c2c1c1c(c3[nH]c4ccccc4c23)CCC1` [Compound 1a, 5,7,8,9,10,11-hexahydrocyclopent[a]pyrrolo[3,4-c]carbazole-5(6H), 7-dione], the IC50 is 36 nM.

The experiment is the same for the next values; noted with them: Table 7; read-out: PARP IC50.
Turning to `COc1ccc2c(c1)[nH]c1c3c(c4c(c12)C(=O)NC4=O)CCC3` [Compound 14a], the IC50 turned out to be 224 nM.

The experiment is the same for the next values; noted with them: Table 18; read-out: PARP IC50.
`O=C1NC(=O)c2c1c1c(c3[nH]c4c(ccc[n+]4[O-])c23)CCC1` [Compound 8l]: the IC50 amounted to 38 nM.

In the case of `CN(C)CN1C(=O)c2c3c(c4[nH]c5ccccc5c4c2C1=O)CCC3` [Compound 16i], the IC50 was determined as 53 nM.

Regarding `O=C1NC(=O)c2c1c1c(c3[nH]c4cccc(OCCO)c4c23)CCC1` [Compound 14k], the half-inhibitory concentration (IC50) is 83 nM.

Turning to `CC(C)Oc1cccc2[nH]c3c4c(c5c(c3c12)C(=O)NC5=O)CCC4` [Compound 14h], the IC50 amounted to 207 nM.

Regarding `O=C1NC(=O)c2c1c1c(c3[nH]c4cccc(O)c4c23)CCC1` [Compound 14c], the IC50 stood at 176 nM.

`COc1cccc2c1c1c3c(c4c(c1n2CN1CCOCC1)CCC4)C(=O)N(CN1CCOCC1)C3=O` [Compound 16a]: the IC50 is 10 nM.

As for `CCOc1cccc2[nH]c3c4c(c5c(c3c12)C(=O)NC5=O)CCC4` [Compound 14g], the IC50 worked out at 56 nM.

For `CC(C)OCCOc1cccc2[nH]c3c4c(c5c(c3c12)C(=O)NC5=O)CCC4` [Compound 14j], the IC50 is 70 nM.

As to `COCCOc1cccc2[nH]c3c4c(c5c(c3c12)C(=O)NC5=O)CCC4` [Compound 14f], the IC50 was found to be 25 nM.

As a reminder, the IC50 is the concentration at which inhibition is half-maximal.
